The values that follow come from PubChem BioAssay (NCI).

Holding throughout (experiment): DTP human tumour cell line panel, 48 h
In experiment [1] the test system is DU-145 prostate.
The test system of experiment [2] is SNB-19 CNS.
Experiment [3] relates to MDA-MB-435.
Experiment [4] concerns NCI-H23 lung.
Experiment [5] relates to T-47D breast.
Experiment [6] relates to HCT-116 colon.
Experiment [7] concerns SK-MEL-28 melanoma.
Experiment [8] relates to SN12C renal.
The subject of experiment [9] is A549 NSCLC.
The test system of experiment [10] is CAKI-1 renal.

Several values for one entry are separate records, joined by “and”; a condition that tells them apart may be missing. Equal entries are not always repeated.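 1) Cells in 96-well plates. 2) Compound, 48 h, 5 concentrations. 3) Linear interpolation between surrounding doses. 4) Unreached endpoint = highest concentration. GI50 marks 50% less growth. TGI: total growth inhibition.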

`CCN1C(=O)/C(=C/c2c(Cl)[nH]c3cc(C)c(OC)cc23)c2ccccc21`: the GI50 was 3.29 µM in experiment [1]; 3.43 µM in experiment [2]; 0.315 µM in [3]; 5.37 µM in [4]; 3.76 µM in experiment [5]; 3.78 µM in [6]. For the same molecule, the GI50 is 49.3 µM in experiment [7], 5.51 µM in experiment [8], 2.84 µM in experiment [9] and 5.45 µM in experiment [10]. The total growth inhibition concentration (TGI) was over 100 µM in [1]; 48.2 µM in experiment [2]; 0.737 µM in experiment [3]; over 100 µM in experiment [4]; over 100 µM in experiment [5]; 16.8 µM in experiment [6]. For the same molecule, the concentration for total growth inhibition (TGI) is over 100 µM in [7], 83.1 µM in experiment [8], over 100 µM in experiment [9] and over 100 µM in experiment [10].
Turning to `NC(CSC(c1ccccc1)(c1ccccc1)c1ccccc1)C(=O)NCC(=O)O` (stereo not given), the GI50 in [1] was 18.9 µM; in experiment [2], 8.33 µM; in experiment [3] it was 2.38 µM; in experiment [5], 11.6 µM; in experiment [6], 3.97 µM; in experiment [7], 8.19 µM. Besides, the values for the GI50 in experiment [8], in experiment [9] and in experiment [10] were 4.05 µM, 8 µM and 37.1 µM, respectively. For the same molecule, the TGI is over 100 µM in experiment [1]; over 100 µM in experiment [2]; 6.8 µM in experiment [3]; over 100 µM in experiment [5]; over 100 µM in experiment [6]; over 100 µM in experiment [7]. For the same molecule, the concentration for total growth inhibition (TGI) in experiment [8], in experiment [9] and in experiment [10] was over 100 µM in each case.
Consider `CCCCCCCCCCCCCCCCCCOC[C@H](COP(=O)(O)O[C@H]1[C@H](O)[C@@H](O)[C@H](O)C[C@H]1O)OC`, for which the GI50 was > 100 µM and 17.3 µM in [1]; 65.9 µM and 11.8 µM in [3]; > 100 µM and 19.3 µM in experiment [4]; > 100 µM and 16.9 µM in [5]; > 100 µM and 15.8 µM in experiment [6]; > 100 µM and 12.2 µM in experiment [8]. Moreover, the GI50 in [9] is > 100 µM and 15 µM; in [10], 87.4 µM and 9.51 µM. For the same molecule, the concentration for total growth inhibition (TGI) in [1] was > 100 µM and 34.5 µM; in [3], > 100 µM and 43.8 µM; in [4], > 100 µM and 35 µM; in experiment [5] it was > 100 µM and 37.4 µM; in experiment [6], > 100 µM and 30.7 µM; in experiment [7], > 100 µM and 33.8 µM. The TGI in experiment [8] is > 100 µM and 25.2 µM; in experiment [9] it was > 100 µM and 28.8 µM; in experiment [10], > 100 µM and 25.1 µM.
For `C=C1c2c(C)nn(-c3ccc(C#CCOC4OC(CO)C(O)C(O)C4O)cc3)c2N(C)C23C[C@H]1C1(C)c4c(C)nn(-c5ccc(C#CCOC6OC(CO)C(O)C(O)C6O)cc5)c4N(C)C(C)(C[C@H]12)C3` (stereo not given in full), the GI50 was 1.97 µM in experiment [1]; 1.66 µM in experiment [2]; 1.67 µM in experiment [3]; 2.33 µM in [4]; 0.687 µM in experiment [5]; 1.9 µM in experiment [7]. Further, the figures for the GI50 in experiment [8], in experiment [9] and in [10] were 1.38 µM, 1.68 µM and 2.81 µM, respectively. Also, the TGI in experiment [1] was 5.16 µM; in [2], 3.95 µM; in [3], 3.77 µM; in [4] it was 6.59 µM; in experiment [5] it was 6.8 µM; in [7] it was 3.52 µM. Also, the TGI in [8] amounted to 3.72 µM; in experiment [9], 4.09 µM; in [10], 11.6 µM.
For `C[C@]12CCc3sc(Nc4ccc(OC(F)(F)F)cc4)nc3C1=CC[C@@H]1[C@@H]2CC[C@]2(C)C(=O)CC[C@@H]12`, the GI50 in experiment [1] was 4.31 µM; in experiment [2] it was 2.12 µM; in experiment [3] it was 2.72 µM; in experiment [4] it was 3.73 µM; in [5] it was 2.15 µM; in [7], 1.88 µM. For the same molecule, the GI50 in experiment [8] is 3.44 µM; in [9] it was 3.35 µM; in experiment [10], 3.21 µM. The TGI in experiment [1] came out at 25.1 µM; in experiment [2] it was 9.93 µM; in experiment [3] it was 10.1 µM; in experiment [4], 21.7 µM; in [5] it was 6.43 µM; in experiment [7], 7.98 µM. Further, the TGI in experiment [8] amounted to 16.1 µM; in [9], 16.1 µM; in [10] it was 13.2 µM.
For the molecule `CN(C)C/C=C/C(=O)Nc1ccc(C(=O)N[C@@]2(C)CCC[C@@H](Nc3ncc(Cl)c(-c4c[nH]c5ccccc45)n3)C2)nc1`, the GI50 is 0.0153 µM in [1]; 0.0163 µM in experiment [2]; 0.0108 µM in experiment [3]; under 0.01 µM in [4]; 0.0218 µM in experiment [5]; under 0.01 µM in [6]. Further, the GI50 in experiment [7] and in [10] was under 0.01 µM in each case. Moreover, the TGI was 1.09 µM in experiment [1]; 1.07 µM in [2]; 0.112 µM in experiment [3]; 0.0523 µM in [4]; 0.565 µM in experiment [5]; 0.124 µM in [6]. Further, the concentration for total growth inhibition (TGI) in experiment [7] came out at 0.118 µM; in [10], 1.11 µM.
For `CC/C=C\C[C@H]1CC=C2C(=O)C=C[C@@H]2CC=CCCCC(=O)O[C@@H](CCCCC)CC=C2C(=O)C=C[C@@H]2CC=CCCCC(=O)O[C@@H](CCCCC)CC=C2C(=O)C=C[C@@H]2CC=CCCCC(=O)O[C@@H](CCCCC)CC=C2C(=O)C=C[C@@H]2CC=CCCCC(=O)O1`, the GI50 in experiment [1] was 2.68 µM; in experiment [2], 2.83 µM; in experiment [3], 1.59 µM; in [4], 2.34 µM; in [5], 1.81 µM; in experiment [6], 1.3 µM. The results for the GI50 in [7], in [8] and in experiment [9] were 1.99 µM, 1.99 µM and 3.59 µM, respectively. For the same molecule, the TGI in [1] is over 7.9 µM; in [2] it was over 7.9 µM; in experiment [3] it was 4.54 µM; in [4], over 7.9 µM; in experiment [5] it was 5.12 µM; in [6], 3.06 µM. In addition, the TGI in experiment [7] is 6.3 µM; in experiment [8], 6.86 µM; in experiment [9], over 7.9 µM.

In general, GI50 refers to the concentration that inhibits growth by half. The term TGI denotes the concentration giving total growth inhibition. Read a high TGI as less potent growth arrest.
